From patent publication US20200155555A1, “VITAMIN RECEPTOR DRUG DELIVERY CONJUGATES FOR TREATING INFLAMMATION” (Endocyte, Inc., priority 2007, published 2020)
Where “and” joins values, the source holds several entries; their conditions need not be identical. Identical values can stand only once.

Key:
[1] = Plasma pharmacokinetics after a single s.c. dose of EC0746 or aminopterin
Protocol: Female Lewis rats with rounded tip jugular vein catheters (Harlan) were fed regular rodent diet and used in this study. The animals were given a single subcutaneous dose of EC0746 at 500 nmol/kg. Whole blood samples (300 μl) were collected from the animals at the following time points: 1 min, 10 min, 30 min, 1 h, 2 h, 3 h, 4 h, and 8 h after injection. The blood samples were placed into anti-coagulant tubes containing 1.7 mg/mL of K3-EDTA and 0.35 mg/mL of N-Maleoyl-beta-alanine (0.35 mg/mL). Plasma samples were obtained by centrifugation for 3 min at ˜2,000 g and stored at −80° C. The amount of EC0746 and its released base drugs (EC0470 & aminopterin) were determined by HPLC using the EC0746 injection solution as the standard (see FIG. 14). […] A similar method was used to determine the plasma pharmacokinetics of aminopterin (see FIG. 15).
Thus, the plasma concentrations of EC0746 and two primary metabolites, AMT and AMT hydrazide, were determined by LC/MS/MS after a single subcutaneous EC0746 administration. […] For comparison, the pharmacokinetics of subcutaneously dosed AMT (500 nmol/kg) was also examined (FIG. 33B).

[2] = test system: rats with adjuvant-induced arthritis (AIA); assay: Adjuvant-induced arthritis (AIA) model; conditions: for Splenomagly (% increase in spleen weight relative to healthy rats) / % Inhibition in paw edema / % Weight loss: AIA rats; for % Weight loss: Day 24 relative to first day of treatment
Protocol: Female Lewis rats were fed a folate-deficient diet (Harlan Teklad, Indianapolis, Ind.) for 9-10 days prior to arthritis induction. The adjuvant-induced arthritis (AIA) was induced by intradermal inoculation (at the base of tail) of 0.5 mg of heat-killed Mycobacteria butyricum (BD Diagnostic Systems, Sparks, Md.) in 100 μL light mineral oil (Sigma). Ten days after arthritis induction, paw edema in rats was assessed using a modified arthritis scoring system: 0=no arthritis; 1=swelling in one type of joint; 2=swelling in two types of joint; 3=swelling in three types of joint; 4=swelling of the entire paw. A total score for each rat is calculated by summarizing the scores for each of the four paws, giving a maximum score of 16 for each rat. On Day 10 post arthritis induction, rats with a total arthritis score of ≥2 were removed from the study and the remaining rats were distributed evenly across the control and treatment groups (n=5 for all groups except that n=2-3 for healthy controls). All treatments started on Day 10 unless mentioned otherwise. […]
Rats with adjuvant arthritis were treated subcutaneously with EC0932 (250 nmol/kg) in the absence or presence of 500-fold excess of EC0923 (125 μmol/kg) on days 10, 13, 17, and 20 post arthritis induction. The animals in the healthy and arthritis control groups were left untreated. The arthritis scores and animal body weights were recorded three times a week (see FIG. 19A, B). At the completion of study (day 24), the rats were euthanized by CO2 asphyxiation and processed for paw and spleen weights (see FIG. 20A, B).
The rat adjuvant induced arthritis (AIA) model resembles the characteristics of RA in humans and has been widely used to study the impact of novel anti-inflammatory agents.

[3] = Maximum tolerated dose (MTD) in healthy folate-deficient rats; format: in vivo
Protocol: Healthy rats were administered a subcutaneous injection of the indicated dose of aminopterin or EC0746 biweekly for 2 weeks; control animals, no treatment, 100 nmole/kg aminopterin, 50 nmole/kg aminopterin, 500 nmole/kg EC0746, or 2000 nmole/kg EC0746. The animals were weighed daily. See FIG. 16A, B. A dose of 0.1 μmol/kg of aminopterin in folate deficient rats is above the MTD; therefore, the projected MTD of EC0746 would be <0.5 μmol/kg based solely on ˜20% free drug release shown in the previous Example. However, the MTD of EC0746 is actually 2.0 μmol/kg, which is equivalent to 0.4 μmol/kg, or—8× higher than the MTD for free aminopterin. On a molar basis for total aminopterin, the MTD is 40× higher. The therapeutic index (MTD for healthy animals/ED50 for treatment of adjuvant-induced arthristis in female Lewis rats) for EC746 is about 9.5 (2000/210).
Since the toxicity of antifolates can be easily masked by rodent diets enriched with folate, healthy rats on a folate-deficient diet (Harlan) were used to determine the maximum-tolerated-dose levels (MTD) of EC0746, AMT and MTX. The animals were given biweekly injections of EC0746, AMT, and MTX for two weeks. The MTD dose was defined as the dose that had caused at least 13-14% weight loss combined with clinical signs of stress and at least one animal in the >MTD dose group needed to be euthanized. Standard hematologic and blood chemistry parameters were examined as needed along with histopathology. The MTDs of EC0746, MTX and AMT were determined to be 2000, 1000, and 50 nmol/kg, respectively. At above the MTD dose level, the main toxicities of EC0746 were similar to those of AMT and MTX, including manifested gastrointestinal distress (diarrhea), swollen muzzle, immunosuppression (bone marrow, thymus), low white-blood-cell count, low platelet count, and infections. […] Overall, EC0746 was approximately 40-fold less toxic than AMT and 2-fold less toxic than MTX on an equimolar basis in these folate-deficient animals; however, its toxicity profile at above MTD levels was not dissimilar from that of AMT and MTX.

[4] = test system: RAW264.7 cells; assay: XTT cell viability / proliferation assay; format: cell-based, murine
Protocol: After 2 h incubation, the drug-containing media were replaced and the cells were allowed to incubate further for 70 h. Four hours prior to the end of incubation, LPS was added to the treated cells at a final concentration of 100 ng/mL. 100 μL of the culture supernatants were collected for TNF-α analysis using a commercial ELISA kit.
RAW264.7 cells in 96-well plates were treated with vehicle (culture medium) or 10-fold serial dilutions of EC0932 without or with 100-fold excess free folate. The drug-containing medium was replaced after 2 h treatment and the cells were allowed to incubate further in standard medium for 70 h. Four hours prior to the end of incubation, LPS was added to the treated cells at a final concentration of 100 ng/mL. […] The cell viability was assessed by adding XTT (2,3-bis(2-methoxy-4-nitro-5-sulfo-phenyl)-2H-tetrazolium-5-carboxanilide) to the remaining medium for an additional 4 h following the manufacturer's instructions (Roche Applied Science, Indianapolis, Ind.).
At 4 h before the end of incubation, LPS (100 ng/ml) was added to the culture medium to stimulate cytokine production.

[5] = molecular target: folate-receptor-beta positive CHO-FR-β cells (Homo sapiens, UniProt P14207); conditions: displacement of 3H-folic acid
[6] = molecular target: folate receptors (FR-α) of KB cells (Homo sapiens, UniProt P15328); conditions: competitive binding with 3H-folic acid, FR-α positive KB cells
[7] = single sc dose of EC0746, 500 nmole/kg, rats
[8] = etanercept s.c. 10 mg/kg once every 3 days

Sequence of folate receptors (FR-α) of KB cells (P15328 25-234): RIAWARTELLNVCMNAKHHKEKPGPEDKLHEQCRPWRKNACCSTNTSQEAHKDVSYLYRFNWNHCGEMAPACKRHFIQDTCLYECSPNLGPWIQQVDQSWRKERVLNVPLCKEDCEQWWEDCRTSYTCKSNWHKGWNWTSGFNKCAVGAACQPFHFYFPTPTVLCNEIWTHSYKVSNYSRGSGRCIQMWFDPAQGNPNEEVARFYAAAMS
Sequence of folate-receptor-beta positive CHO-FR-β cells (P14207 17-230): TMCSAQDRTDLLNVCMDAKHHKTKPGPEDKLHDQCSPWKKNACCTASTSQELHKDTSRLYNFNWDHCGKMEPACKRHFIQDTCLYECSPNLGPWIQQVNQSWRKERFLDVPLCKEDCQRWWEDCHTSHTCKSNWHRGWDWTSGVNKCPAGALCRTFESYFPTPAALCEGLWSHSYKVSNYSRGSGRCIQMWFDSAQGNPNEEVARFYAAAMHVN

Compound: Nc1nc(N)c2nc(CNc3ccc(C(=O)N[C@@H](CCC(=O)O)C(=O)O)cc3)cnc2n1 [aminopterin]
- delay of peak plasma appearance from the EC0746 Cmax ([1]; rat, in vivo, sc, 500 nmol/kg): 30 min
- lethality to AIA rats ([2]; AMT mixed with free folic acid (1:1), 500 nmol/kg/dose, biweekly): 100%
- MTD at 2 weeks ([3]; rat, in vivo, folate deficient rats, sc biweekly for 2 weeks): < 0.1 µmol/kg

Compound: NNC(=O)CC[C@H](NC(=O)c1ccc(NCc2cnc3nc(N)nc(N)c3n2)cc1)C(=O)O [EC0470, aminopterin gamma-hydrazide]
- delay of peak plasma appearance from the EC0746 Cmax ([1]; EC0746-dosed rats, sc 500 nmol/kg): 30 min
- Tmax of released base drug in plasma ([1]; after single sc dose of EC0746, 500 nmol/kg, rats): ~60 min
- potency on cell proliferation and LPS-stimulated TNF-α production ([4]; 72 h incubations of RAW264.7 macrophages): equally potent

Compound: N=c1[nH]c(N)nc2ncc(CNc3ccc(C(=O)N[C@@H](CCC(=O)NNC(=O)OCCSSC[C@H](NC(=O)[C@H](CCC(=O)NC[C@H](O)[C@@H](O)[C@H](O)[C@H](O)CO)NC(=O)[C@H](CCC(=O)O)NC(=O)[C@H](CCC(=O)NC[C@H](O)[C@@H](O)[C@H](O)[C@H](O)CO)NC(=O)[C@H](CCC(=O)O)NC(=O)[C@H](CCC(=O)NC[C@H](O)[C@@H](O)[C@H](O)[C@H](O)CO)NC(=O)CC[C@H](NC(=O)c4ccc(NCc5cnc6nc(N)[nH]c(=O)c6n5)cc4)C(=O)O)C(=O)O)C(=O)O)cc3)nc12 [EC0746]
- bioavailability after subcutaneous administration ([1]; rats): bioavailable after subcutaneous administration
- elimination half-life of EC0746 ([1]; single sc dose of EC0746, 500 nmol/kg, rats): ~35 min
- Area Under Curve for free drug (aminopterin+aminopterin hydrazide) [1, 7]: 7.3 nmol·min/mL
- Cmax for free drug (aminopterin+aminopterin hydrazide) [1, 7]: 0.034 µM
- Cmax for free drug as % of the total dose [1, 7]: 9.6%
- time of Cmax for free drug (aminopterin+aminopterin hydrazide) [1, 7]: 60 min
- EC50 ([4]; 2 h treatment, then 70-72 h in drug-free medium, read-out: EC50 (ED50), viability/proliferation of RAW264.7 cells, XTT assay): 0.3 nM and ~0.3 nM
- therapeutic index (MTD for healthy animals/ED50 in AIA) ([3]; 2000/210): about 9.5
- MTD relative to MTD for free aminopterin, based on ~20% free drug release (0.4 μmol/kg equivalent) ([3]; rat, in vivo): 8 ×
- MTD relative to free aminopterin on a molar basis for total aminopterin ([3]; rat, in vivo): 40 ×
- gastrointestinal-associated toxicities at MTD dose ([3]; rats): showed less gastrointestinal-associated toxicities than AMT and MTX
- Relative affinity to folate receptors (folic acid set as 1) [5]: 0.27
- Relative affinity to folate receptors (folic acid set as 1) [6]: 0.5

Compound: CN(Cc1cnc2nc(N)nc(N)c2n1)c1ccc(C(=O)N[C@@H](CCC(=O)O)C(=O)O)cc1 [methotrexate]
- Splenomagly (% increase in spleen weight relative to healthy rats) ([2]; oral, 250 nmol/kg biw): 42 ± 17%
- % Inhibition in paw edema ([2]; oral, 250 nmol/kg biw, Day 24): 70 ± 5%
- % Weight loss ([2]; oral, 250 nmol/kg biw): −14 ± 2%
- % Weight loss ([2]; oral, 1650 nmol/kg qw): −10 ± 2%
- % Inhibition in paw edema ([2]; oral, 1650 nmol/kg qw, calculated based on arthritis scores on Day 24): 47 ± 10 %
- Splenomagly (% increase in spleen weight relative to healthy rats) ([2]; sc, 250 nmol/kg biw): 24 ± 3%
- % Inhibition in paw edema ([2]; sc, 250 nmol/kg biw, Day 24): 78 ± 10%
- % Weight loss ([2]; sc, 250 nmol/kg biw): −2 ± 4%
- Splenomagly (% increase in spleen weight relative to healthy rats) ([2]; sc, 500 nmol/kg biw): 20 ± 4%
- % Inhibition in paw edema ([2]; sc, 500 nmol/kg biw, Day 24): 88 ± 7%
- % Weight loss ([2]; sc, 500 nmol/kg biw): −2 ± 7%
- decrease in dorsal to ventral paw thickness ([2]; oral MTX 250 nmol/kg biweekly): 63%
- decrease in summed histological score ([2]; oral MTX 250 nmol/kg biweekly): 73%
- reductions in all scored histology parameters vs untreated controls ([2]; oral MTX 250 nmol/kg biweekly): 66-84%
- blocking of anti-arthritic activity by folate competitor ([2]; s.c. MTX 250 nmol/kg/dose with 500-fold excess EC0923): not significantly blocked by excess EC0923
- effect on development and severity of arthritis ([2]; s.c. MTX 250 nmol/kg/dose, 2 weeks): significantly improved the development and severity of arthritis
- reduction of local (paw) and systemic (spleen) inflammation ([2]; sc 300 nmol/kg on days 10, 13, 17, 20): similarly active in reducing local (paw) and systemic (spleen) inflammation
- Relative affinity to folate receptors (folic acid set as 1) [5]: 0.005
- Relative affinity to folate receptors (folic acid set as 1) [6]: 0.018

Compound: etanercept
- Splenomagly (% increase in spleen weight relative to healthy rats) ([2]; sc, 10 mg/kg q3d): 42 ± 7%
- % Inhibition in paw edema ([2]; sc, 10 mg/kg q3d, Day 24): 46 ± 9%
- % Weight loss ([2]; sc, 10 mg/kg q3d): −15 ± 2%
- decrease in dorsal to ventral paw thickness [2, 8]: 40%
- decrease in summed histological score [2, 8]: 43%
- reduction in bone resorption (histology) [2, 8]: 55%
- reduction in inflammation (histology) [2, 8]: 42%

Compound: Nc1nc2ncc(CNc3ccc(C(=O)N[C@@H](CCC(=O)N[C@H](CC(=O)O)C(=O)N[C@H](CC(=O)O)C(=O)O)C(=O)O)cc3)nc2c(=O)[nH]1 [EC0923]
- effect on development or severity of AIA ([2]; EC0923 alone, 125 μmol/kg/dose biweekly 2 weeks): did not have any impact on the development or severity of the disease
- dorsal to ventral paw thickness ([2]; EC0923 alone, 125 μmol/kg/dose biweekly, arthritic control ~9.8, healthy ~5.8): ~9.4 mm
- mean sum of histology scores (maximum 20) ([2]; EC0923 alone, 125 μmol/kg/dose biweekly, arthritic control ~15.3): 14.2
- Relative affinity to folate receptors (folic acid set as 1) [6]: 0.84
